Results reported in US10479786B2, “Protein kinase inhibitors” (Princeton Drug Discovery Inc, priority 2016, dated 2019).

Target: T1, RET(M918T) (Homo sapiens, UniProt P07949, M918T)
T1 construct: purchased Carna Biosciences, Inc
Assay: Off-chip Mobility Shift Assay, kinase inhibition
Format: biochemical
Conditions: at 10 nM; recombinant RET(M918T)

T1 sequence (P07949 29-1114 M918T): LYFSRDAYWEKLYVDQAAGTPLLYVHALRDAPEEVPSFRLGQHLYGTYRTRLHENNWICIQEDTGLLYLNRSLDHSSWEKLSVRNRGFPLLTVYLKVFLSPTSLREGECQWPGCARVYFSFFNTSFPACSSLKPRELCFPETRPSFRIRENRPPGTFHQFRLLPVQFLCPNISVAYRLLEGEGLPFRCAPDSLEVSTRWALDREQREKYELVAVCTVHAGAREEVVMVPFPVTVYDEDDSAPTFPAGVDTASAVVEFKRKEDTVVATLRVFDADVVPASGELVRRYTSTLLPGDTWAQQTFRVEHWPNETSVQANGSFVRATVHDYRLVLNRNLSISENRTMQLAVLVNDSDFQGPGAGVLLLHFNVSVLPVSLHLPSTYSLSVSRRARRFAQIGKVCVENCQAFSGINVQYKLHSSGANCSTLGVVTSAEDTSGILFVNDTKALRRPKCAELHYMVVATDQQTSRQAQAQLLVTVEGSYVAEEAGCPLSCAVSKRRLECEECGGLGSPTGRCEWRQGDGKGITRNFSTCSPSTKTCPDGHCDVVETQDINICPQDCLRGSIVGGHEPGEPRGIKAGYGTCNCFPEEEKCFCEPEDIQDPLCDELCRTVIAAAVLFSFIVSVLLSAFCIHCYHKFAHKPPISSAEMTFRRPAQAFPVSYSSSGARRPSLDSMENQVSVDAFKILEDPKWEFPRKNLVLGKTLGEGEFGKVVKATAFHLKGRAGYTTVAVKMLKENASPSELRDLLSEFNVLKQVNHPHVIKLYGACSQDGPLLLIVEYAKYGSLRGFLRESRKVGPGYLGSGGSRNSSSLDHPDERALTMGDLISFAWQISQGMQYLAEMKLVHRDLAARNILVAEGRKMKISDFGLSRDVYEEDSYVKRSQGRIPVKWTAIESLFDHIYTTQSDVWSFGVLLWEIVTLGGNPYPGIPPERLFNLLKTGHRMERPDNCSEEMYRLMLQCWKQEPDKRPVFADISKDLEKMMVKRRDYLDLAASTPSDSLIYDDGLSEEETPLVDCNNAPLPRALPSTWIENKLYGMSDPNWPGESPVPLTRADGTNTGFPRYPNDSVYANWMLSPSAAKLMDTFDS

- inhibition at 0.01 µM: < 50%
Compound: [2H]c1cc(C)c(NC(=O)c2cnc(Nc3cc(N4CCCCC4)nc(C)n3)s2)c(Cl)c1 [Compound I, N-(2-chloro-4-deuterio-6-methyl-phenyl)-2-[[2-methyl-6-(1-piperidyl)pyrimidin-4-yl]amino]thiazole-5-carboxamide]
